Experiment [1] concerns the target JAK1 (recombinant purified GST-tagged catalytic domain) (Homo sapiens (Human), UniProt P23458). The experiment is described as follows: Jak Biochemical HTRF Assay (JAK1). The note with it: [ATP] 31.8 μM. In short, it runs like this: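 HTRF format, biotinylated peptide substrate; ATP-initiated reaction 120 min RT; EDTA quench + streptavidin-Dylight 650/Eu-anti-pY20 detection, 60 min RT; signal = 665/615 ratio ×10,000; normalized % inhibition, 4-parameter fit → IC50.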

In experiment [2] the target is JAK2 (recombinant purified GST-tagged catalytic domain) (Homo sapiens (Human), UniProt O60674). Description: Jak Biochemical HTRF Assay (JAK2). The following applies: [ATP] 8.5 μM.

The results in this text go back to patent US9957264B2 (Merck Sharp & Dohme Corp., priority 2013, dated 2018).

Sequence of JAK2 (recombinant purified GST-tagged catalytic domain) (O60674 849-1124): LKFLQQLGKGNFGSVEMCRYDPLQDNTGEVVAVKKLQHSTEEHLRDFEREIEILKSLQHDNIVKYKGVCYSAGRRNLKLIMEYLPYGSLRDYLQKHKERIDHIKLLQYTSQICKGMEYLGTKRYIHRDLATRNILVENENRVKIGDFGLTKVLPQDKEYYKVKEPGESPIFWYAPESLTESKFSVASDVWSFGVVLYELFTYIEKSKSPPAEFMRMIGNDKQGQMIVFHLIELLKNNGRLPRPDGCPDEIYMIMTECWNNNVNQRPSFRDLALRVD
Sequence of JAK1 (recombinant purified GST-tagged catalytic domain) (P23458 875-1153): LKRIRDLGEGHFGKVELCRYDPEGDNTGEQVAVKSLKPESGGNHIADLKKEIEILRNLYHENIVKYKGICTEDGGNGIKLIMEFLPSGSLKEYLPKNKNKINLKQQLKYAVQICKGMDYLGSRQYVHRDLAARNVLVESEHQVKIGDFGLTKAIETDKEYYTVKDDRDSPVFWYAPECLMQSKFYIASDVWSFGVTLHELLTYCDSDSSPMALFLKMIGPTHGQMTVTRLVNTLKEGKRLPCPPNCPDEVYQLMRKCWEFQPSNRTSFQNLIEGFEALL

Turning to `Cc1cc(Nc2nn([C@]3(CC#N)CC[C@@H](C(=O)OC(C)(C)C)OC3)c3cc[nH]c(=O)c23)ccc1C(=O)N1CCOCC1C` (single isomer, unassigned) [Example 20-8, (2S,5S)-tert-butyl 5-(cyanomethyl)-5-(3-((3-methyl-4-((S or R)-3-methylmorpholine-4-carbonyl)phenyl)amino)-4-oxo-4,5-dihydro-1H-pyrazolo[4,3-c]pyridin-1-yl)tetrahydro-2H-pyran-2-carboxylate], the half-maximal inhibitory concentration (IC50) in experiment [1] was determined as 0.15 nM; in experiment [2], 0.16 nM.
On the same counts, the results for `CCNc1nn(C2(CC#N)CN(C(=O)OC(C)(C)C)C2)c2cc[nH]c(=O)c12` [Example 2-4, tert-butyl 3-(cyanomethyl)-3-[3-(ethylamino)-4-oxo-4,5-dihydro-1H-pyrazolo [4,3-c]pyridin-1-yl] azetidine-1-carboxylate] are 208 nM and over 1480 nM.
On the same counts, the results for `COC(=O)N1CCC(CC#N)(n2nc(Nc3ccnc(F)c3)c3c(=O)[nH]ccc32)CC1` [Example 13-2, methyl 4-(cyanomethyl)-4-(3-(2-fluoropyridin-4-ylamino)-4-oxo-4,5-dihydropyrazolo[4,3-c]pyridin-1-yl)piperidine-1-carboxylate] are 0.64 nM and 5.54 nM.
Regarding `CC(O)(c1ccc(Nc2nn([C@]3(CC#N)CCCOC3)c3cc[nH]c(=O)c23)cc1)C(F)(F)F` (single isomer, unassigned) [Example 5-110, {(3S)-3-[4-oxo-3-({4-[(1S or 1R)-2,2,2-trifluoro-1-hydroxy-1-methylethyl]phenyl}amino)-4,5-dihydro-1H-pyrazolo[4,3-c]pyridin-1-yl]tetrahydro-2H-pyran-3-yl}acetonitrile], the half-maximal inhibitory concentration (IC50) in experiment [1] came out at 0.16 nM; in experiment [2] it was 0.59 nM.
On the same counts, the results for `CC(C)N1Cc2cc(Nc3nn(C4(CC#N)CCCC4)c4cc[nH]c(=O)c34)ccc2C1=O` [Example 5-129, 2-(1-(3-((2-isopropyl-1-oxoisoindolin-5-yl)amino)-4-oxo-4,5-dihydro-1H-pyrazolo[4,3-c]pyridin-1-yl)cyclopentyl)acetonitrile] are 2.07 nM and 3.54 nM.
Turning to `CC(C)c1ccc(CN2CCC(CC#N)(n3nc(Nc4ccc(S(=O)(=O)N(C)C)cc4)c4c(=O)[nH]ccc43)CC2)cc1` [Example 8-4, 4-[(1-{4-(cyanomethyl)-1[4-(1-methylethyl)benzyl]piperidin-4-yl}-4-oxo-4,5-dihydro-1H-pyrazolo[4,3-c]pyridin-3-yl)amino]-N,N-dimethylbenzenesulfonamide], the half-inhibitory concentration (IC50) stood at 6.9 nM in experiment [1] and 33.1 nM in experiment [2].
The matching figures for `CC(C)S(=N)(=O)c1ccc(Nc2nn([C@]3(CC#N)CCCOC3)c3cc[nH]c(=O)c23)cc1` (single isomer, unassigned) [Example 5-233, 2-((3S)-3-(4-oxo-3-((4-(propan-2-yl-(S or R)-sulfonimidoyl)phenyl)amino)-4,5-dihydro-1H-pyrazolo[4,3-c]pyridin-1-yl)tetrahydro-2H-pyran-3-yl)acetonitrile]: 0.36 nM and 0.4 nM.
As for `CC(C)(C)OC(=O)N1CCC(CC#N)(n2nc(Nc3cc(Cn4ccnn4)cc(Cn4nccn4)c3)c3c(=O)[nH]ccc32)CC1` [Example 5-64, tert-butyl 4-(3-(3-((1H-1,2,3-triazol-1-yl)methyl)-5-((2H-1,2,3-triazol-2-yl)methyl)phenylamino)-4-oxo-4,5-dihydropyrazolo [4,3-c]pyridin-1-yl)-4-(cyanomethyl)piperidine-1-carboxylate], the values for the IC50 in experiment [1] and in experiment [2] were 0.57 nM and 0.46 nM, respectively.
The matching figures for `CN(C)S(=O)(=O)c1ccc(Nc2nn(C3(CC#N)CCN(C(=O)C45CC6C[C@H](C4)C[C@@H](C6)C5)CC3)c3cc[nH]c(=O)c23)cc1` [Example 9-9, 4-[(1-{4-(cyanomethyl)-1-[(3S,5S,7S)-tricyclo[3.3.1.1^3,7]dec-1-ylcarbonyl]piperidin-4-yl}-4-oxo-4,5-dihydro-1H-pyrazolo[4,3-c]pyridin-3-yl)amino]-N,N-dimethylbenzenesulfonamide]: 3.96 nM and 38.8 nM.
In the case of `Cc1cc(Nc2nn([C@]3(CC#N)CCCOC3)c3cc[nH]c(=O)c23)ccc1C(=O)N1CCC(C)(O)CC1` [Example 20-4, (S)-2-(3-(3-((4-(4-hydroxy-4-methylpiperidine-1-carbonyl)-3-methylphenyl)amino)-4-oxo-4,5-dihydro-1H-pyrazolo[4,3-c]pyridin-1-yl)tetrahydro-2H-pyran-3-yl)acetonitrile], the IC50 in experiment [1] worked out at 0.35 nM; in experiment [2], 0.88 nM.
With `CC(C)(C)OC(=O)N1CCC(CC#N)(n2nc(Nc3ccc(S(=O)(=O)N4CCCCC4)cc3)c3c(=O)[nH]ccc32)CC1` [Example 5-293, tert-butyl 4-(cyanomethyl)-4-(4-oxo-3-((4-(piperidin-1-ylsulfonyl)phenyl)amino)-4,5-dihydro-1H-pyrazolo[4,3-c]pyridin-1-yl)piperidine-1-carboxylate], the IC50 came to 0.43 nM in experiment [1] and 0.68 nM in experiment [2].
The matching figures for `N#CCC1(n2nc(Nc3ccc(S(=O)(=O)N4CCC4)cc3)c3c(=O)[nH]ccc32)CCCC1` [Example 5-132, 2-(1-(3-((4-(azetidin-1-ylsulfonyl)phenyl)amino)-4-oxo-4,5-dihydro-1H-pyrazolo[4,3-c]pyridin-1-yl)cyclopentyl)acetonitrile]: 0.39 nM and 0.68 nM.
With `COC1CN([C@H]2CC[C@@](CC#N)(n3nc(Nc4ccc(Cl)c(F)c4)c4c(=O)[nH]ccc43)CC2)C1` [Example 18-23, Cis 2-(1-(3-((4-chloro-3-fluorophenyl)amino)-4-oxo-4,5-dihydro-1H-pyrazolo[4,3-c]pyridin-1-yl)-4-(3-methoxyazetidin-1-yl)cyclohexyl)acetonitrile], the IC50 in experiment [1] was 125 nM; in experiment [2], over 1500 nM.
The matching figures for `CN(C)S(=O)(=O)c1ccc(Nc2nn(C3(CC#N)CCN(C(=O)CCc4ccccc4)CC3)c3cc[nH]c(=O)c23)cc1` [Example 9-17, 4-({1-[4-(cyanomethyl)-1-(3-phenylpropanoyl)piperidin-4-yl]-4-oxo-4,5-dihydro-1H-pyrazolo[4,3-c]pyridin-3-yl}amino)-N,N-dimethylbenzenesulfonamide]: 0.15 nM and 0.7 nM.
Turning to `CC(C)OC(=O)C(C)(C)C(O)(c1ccc(Nc2nn([C@]3(CC#N)CC[C@@H](C(=O)OC(C)(C)C)OC3)c3cc[nH]c(=O)c23)cc1)C(F)(F)F` (single isomer, unassigned) [Example 5-162, (2S,5S)-tert-butyl 5-(cyanomethyl)-5-(4-oxo-3-((4-((S or R)-1,1,1-trifluoro-2-hydroxy-4-isopropoxy-3,3-dimethyl-4-oxobutan-2-yl)phenyl)amino)-4,5-dihydro-1H-pyrazolo[4,3-c]pyridin-1-yl)tetrahydro-2H-pyran-2-carboxylate], the IC50 was 2.76 nM in experiment [1] and 12.9 nM in experiment [2].
On the same counts, the results for `CO[C@H](c1ccc(Nc2nn(C3(CC#N)CCN(C(=O)OC(C)(C)C)CC3)c3cc[nH]c(=O)c23)cc1)C(F)(F)F` (single isomer, unassigned) [Example 21-9, tert-butyl 4-(cyanomethyl)-4-[4-oxo-3-({4-[(1R or 1S)-2,2,2-trifluoro-1-methoxyethyl]phenyl}amino)-4,5-dihydro-1H-pyrazolo[4,3-c]pyridin-1-yl]piperidine-1-carboxylate] are 1.11 nM and 1.96 nM.
On the same counts, the results for `N#CC[C@@]1(n2nc(Nc3ccc(C(N)C(F)(F)F)cc3)c3c(=O)[nH]ccc32)CCCOC1` (single isomer, unassigned) [Example 5-188, {(3S)-3-[3-({4-[(1S or 1R)-1-amino-2,2,2-trifluoroethyl]phenyl}amino)-4-oxo-4,5-dihydro-1H-pyrazolo[4,3-c]pyridin-1-yl]tetrahydro-2H-pyran-3-yl}acetonitrile] are 0.11 nM and 0.34 nM.
The matching figures for `N#CC[C@]1(n2nc(Nc3ccc(C(N)C(F)(F)F)cc3)c3c(=O)[nH]ccc32)CCCC[C@H]1F` (single isomer, unassigned) [Example 5-176, {(1R,2R)-1-[3-({4-[(1R or 1S)-1-amino-2,2,2-trifluoroethyl]phenyl}amino)-4-oxo-4,5-dihydro-1H-pyrazolo [4,3-c]pyridin-1-yl]-2-fluorocyclohexyl} acetonitrile]: 0.05 nM and 0.09 nM.
For the molecule `CN(C(C)(C)C(=O)OC(C)(C)C)S(=O)(=O)c1ccc(Nc2nn(C3(CC#N)CCCC3)c3cc[nH]c(=O)c23)cc1` [Example 5-137, tert-butyl 2-(4-((1-(1-(cyanomethyl)cyclopentyl)-4-oxo-4,5-dihydro-1H-pyrazolo[4,3-c]pyridin-3-yl)amino)-N-methylphenylsulfonamido)-2-methylpropanoate], the IC50 in experiment [1] was found to be 1.9 nM; in experiment [2], 5.85 nM.
Regarding `CC(OC(=O)N1CCC(CC#N)(n2nc(Nc3ccc(S(=O)(=O)N(C)C)cc3)c3c(=O)[nH]ccc32)CC1)c1ccccn1` (stereo not drawn) [Example 11-9, 1-(pyridin-2-yl)ethyl 4-(cyanomethyl)-4-(3-((4-(N,N-dimethylsulfamoyl)phenyl)amino)-4-oxo-4,5-dihydro-1H-pyrazolo[4,3-c]pyridin-1-yl)piperidine-1-carboxylate], the IC50 was 0.41 nM in experiment [1] and 1.37 nM in experiment [2].
As for `CN(C)S(=O)(=O)c1ccc(Nc2nn(C3(CC#N)CCN(C(=O)C4CCOCC4)CC3)c3cc[nH]c(=O)c23)cc1` [Example 9-20, 4-({1-[4-(cyanomethyl)-1-(tetrahydro-2H-pyran-4-ylcarbonyl)piperidin-4-yl]-4-oxo-4,5-dihydro-1H-pyrazolo[4,3-c]pyridin-3-yl}amino)-N,N-dimethylbenzenesulfonamide], the IC50 in experiment [1] turned out to be 0.31 nM; in experiment [2], 2.48 nM.
